Each compound was assayed against HCV NS3-4A serine protease (full-length NS3-4A protein) (Hepatitis C virus genotype 1a (isolate 1) (HCV), UniProt P26664) (assay: HCV NS3-4A protease assay). Conditions: strain HCV-1, fluorogenic peptide substrate, read-out: Protease assay Ex. 12 IC50.
Type: biochemical, HCV genotype 1a
Procedure: The inhibitory activity of certain compounds of Table A against HCV NS3-4A serine protease is determined in a homogenous assay using the full-length NS3-4A protein (genotype 1a, strain HCV-1) and a commercially available internally-quenched fluorogenic peptide substrate as described by Taliani, M., et al. 1996 Anal. Biochem. 240:60-67, which is incorporated by reference in its entirety.

HCV NS3-4A serine protease (full-length NS3-4A protein), sequence (P26664 1027-1657): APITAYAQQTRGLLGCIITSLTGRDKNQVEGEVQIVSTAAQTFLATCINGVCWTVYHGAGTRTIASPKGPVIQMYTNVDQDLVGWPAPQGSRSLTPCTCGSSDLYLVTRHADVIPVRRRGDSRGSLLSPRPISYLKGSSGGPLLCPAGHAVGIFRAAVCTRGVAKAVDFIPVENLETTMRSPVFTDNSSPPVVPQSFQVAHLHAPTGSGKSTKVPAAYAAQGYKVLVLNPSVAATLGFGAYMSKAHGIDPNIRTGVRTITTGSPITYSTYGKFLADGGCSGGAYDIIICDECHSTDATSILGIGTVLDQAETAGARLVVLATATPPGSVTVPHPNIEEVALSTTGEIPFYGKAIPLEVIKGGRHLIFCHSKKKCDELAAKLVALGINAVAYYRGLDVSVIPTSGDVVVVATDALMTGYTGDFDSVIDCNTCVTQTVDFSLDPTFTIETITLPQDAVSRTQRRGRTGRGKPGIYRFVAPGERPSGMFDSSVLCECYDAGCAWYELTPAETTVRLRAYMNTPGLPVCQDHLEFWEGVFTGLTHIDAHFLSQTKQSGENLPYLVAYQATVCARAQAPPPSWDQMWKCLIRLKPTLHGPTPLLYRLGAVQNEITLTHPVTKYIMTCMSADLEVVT
HCV NS3-4A serine protease (full-length NS3-4A protein), sequence (P26664 1658-1711 partner): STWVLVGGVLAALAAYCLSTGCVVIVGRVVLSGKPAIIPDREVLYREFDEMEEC

In order of rising IC50:
1. C=C[C@@H]1C[C@]1(NC(=O)[C@@H]1C[C@@]2(CN1C(=O)[C@@H](NC(=O)[C@@H](NC(=O)[C@@H]1CCCCN1C(C)C)C1CCCCC1)C(C)(C)C)C(C)(C)C21CCC1)C(=O)NS(=O)(=O)N(C)CC [Compound 170, (5R,8S)-7-[(2S)-2-{[(2S)-2-cyclohexyl-2-({[(2S)-1-isopropylpiperidin-2-yl]carbonyl}amino)acetyl]amino}-3,3-dimethylbutanoyl]-N-[(1R,2S)-1-({[ethyl(methyl)amino]sulfonyl}carbamoyl)-2-vinylcyclopropyl]-10,10-dimethyl-7-azadispiro[3.0.4.1]decane-8-carboxamide]  0.5 nM
2. C=C[C@@H]1C[C@]1(NC(=O)[C@@H]1C[C@@]2(CN1C(=O)[C@@H](NC(=O)[C@@H](NC(=O)c1cnccn1)C1CCCCC1)C(C)(C)C)C(C)(C)C21CCC1)C(=O)NS(=O)(=O)N(C)CC [Compound 167, (5R,8S)-7-[(2S)-2-({(2S)-2-cyclohexyl-2-[(pyrazin-2-ylcarbonyl)amino]acetyl}amino)-3,3-dimethylbutanoyl]-N-[(1R,2S)-1-({[ethyl(methyl)amino]sulfonyl}carbamoyl)-2-vinylcyclopropyl]-10,10-dimethyl-7-azadispiro[3.0.4.1]decane-8-carboxamide]  0.6 nM
3. C=C[C@@H]1C[C@]1(NC(=O)[C@@H]1C[C@@]2(CN1C(=O)[C@@H](NC(=O)[C@@H](NC(=O)[C@@H]1CCCCN1C(C)C)C1CCCCC1)C(C)(C)C)C(C)(C)C21CCC1)C(=O)NS(=O)(=O)N(CC)CC [Compound 174, (5R,8S)-7-[(2S)-2-{[(2S)-2-cyclohexyl-2-({[(2S)-1-isopropylpiperidin-2-yl]carbonyl}amino)acetyl]amino}-3,3-dimethylbutanoyl]-N-[(1R,2S)-1-{[(diethylamino)sulfonyl]carbamoyl}-2-vinylcyclopropyl]-10,10-dimethyl-7-azadispiro[3.0.4.1]decane-8-carboxamide]  0.6 nM
4. C=C[C@@H]1C[C@]1(NC(=O)[C@@H]1C[C@@]2(CN1C(=O)[C@@H](NC(=O)[C@@H](NC(=O)[C@@H]1CCCCN1C(C)C)C1CCCCC1)C(C)(C)C)C(C)(C)C21CCC1)C(=O)NS(=O)(=O)N(C)C [Compound 162, (5R,8S)-7-[(2S)-2-{[(2S)-2-cyclohexyl-2-{[(1-isopropylpiperidin-2-yl)carbonyl]amino}acetyl]amino}-3,3-dimethylbutanoyl]-N-[(1R,2S)-1-{[(dimethylamino)sulfonyl]carbamoyl}-2-vinylcyclopropyl]-10,10-dimethyl-7-azadispiro[3.0.4.1]decane-8-carboxamide]  0.9 nM
5. C=C[C@@H]1C[C@]1(NC(=O)[C@@H]1C[C@@]2(CN1C(=O)[C@@H](NC(=O)[C@@H](NC(=O)[C@@H]1CCCCN1C(C)C)C1CCCCC1)C(C)(C)C)C(C)(C)C21CCC1)C(=O)NS(=O)(=O)NC(C)(C)C [Compound 169, (5R,8S)-N-[(1R,2S)-1-{[(tert-butylamino)sulfonyl]carbamoyl}-2-vinylcyclopropyl]-7-[(2S)-2-{[(2S)-2-cyclohexyl-2-({[(2S)-1-isopropylpiperidin-2-yl]carbonyl}amino)acetyl]amino}-3,3-dimethylbutanoyl]-10,10-dimethyl-7-azadispiro[3.0.4.1]decane-8-carboxamide]  1.5 nM
6. C=C[C@@H]1C[C@]1(NC(=O)[C@@H]1C[C@@]2(CN1C(=O)[C@@H](NC(=O)[C@@H](NC(=O)[C@@H]1CCCCN1C(C)C)C1(C)CCCCC1)C1(C)CCCCC1)C(C)(C)C21CCC1)C(=O)NS(=O)(=O)N(CC)CC [Compound 160, (5R,8S)-N-[(1R,2S)-1-{[(diethylamino)sulfonyl]carbamoyl}-2-vinylcyclopropyl]-7-[(2S)-2-{[(2S)-2-({[(2S)-1-isopropylpiperidin-2-yl]carbonyl}amino)-2-(1-methylcyclohexyl)acetyl]amino}-2-(1-methylcyclohexyl)acetyl]-10,10-dimethyl-7-azadispiro[3.0.4.1]decane-8-carboxamide]  3 nM
7. C=C[C@@H]1C[C@]1(NC(=O)[C@@H]1C[C@@]2(CN1C(=O)[C@@H](NC(=O)[C@@H](NC(=O)c1cnccn1)C1CCCCC1)C(C)(C)C)C(C)(C)C21CCC1)C(=O)NS(=O)(=O)N(CC)CC [Compound 173, (5R,8S)-7-[(2S)-2-({(2S)-2-cyclohexyl-2-[(pyrazin-2-ylcarbonyl)amino]acetyl}amino)-3,3-dimethylbutanoyl]-N-[(1R,2S)-1-{[(diethylamino)sulfonyl]carbamoyl}-2-vinylcyclopropyl]-10,10-dimethyl-7-azadispiro[3.0.4.1]decane-8-carboxamide]  3 nM
8. C=C[C@@H]1C[C@]1(NC(=O)[C@@H]1C[C@@]2(CN1C(=O)[C@@H](NC(=O)[C@@H](NC(=O)c1cnccn1)C1CCCCC1)C(C)(C)C)C(C)(C)C21CCC1)C(=O)NS(=O)(=O)NC1CC1 [Compound 165, (5R,8S)-7-[(2S)-2-({(2S)-2-cyclohexyl-2-[(pyrazin-2-ylcarbonyl)amino]acetyl}amino)-3,3-dimethylbutanoyl]-N-[(1R,2S)-1-{[(cyclopropylamino)sulfonyl]carbamoyl}-2-vinylcyclopropyl]-10,10-dimethyl-7-azadispiro[3.0.4.1]decane-8-carboxamide]  6.2 nM
9. C=CC1CC1(NC(=O)[C@@H]1C[C@@]2(CN1C(=O)[C@@H](NC(=O)[C@@H](NC(=O)C1CCCCN1C(C)C)C1CCCCC1)C(C)(C)C)C(C)(C)C21CCC1)C(=O)NS(=O)(=O)N1CC(F)(F)C1 (stereo partly drawn) [Compound 164, (5R,8S)-7-[(2S)-2-{[(2S)-2-cyclohexyl-2-{[(1-isopropylpiperidin-2-yl)carbonyl]amino}acetyl]amino}-3,3-dimethylbutanoyl]-N-(1-{[(3,3-difluoroazetidin-1-yl)sulfonyl]carbamoyl}-2-vinylcyclopropyl)-10,10-dimethyl-7-azadispiro[3.0.4.1]decane-8-carboxamide]  8 nM
10. C=C[C@@H]1C[C@]1(NC(=O)[C@@H]1C[C@@]2(CN1C(=O)[C@@H](NC(=O)[C@@H](NC(=O)c1cnccn1)C1CCCCC1)C(C)(C)C)C(C)(C)C21CCC1)C(=O)NS(=O)(=O)NC(C)(C)C [Compound 166, (5R,8S)-N-[(1R,2S)-1-{[(tert-butylamino)sulfonyl]carbamoyl}-2-vinylcyclopropyl]-7-[(2S)-2-({(2S)-2-cyclohexyl-2-[(pyrazin-2-ylcarbonyl)amino]acetyl}amino)-3,3-dimethylbutanoyl]-10,10-dimethyl-7-azadispiro[3.0.4.1]decane-8-carboxamide]  10 nM
11. C=C[C@@H]1C[C@]1(NC(=O)[C@@H]1C[C@@]2(CN1C(=O)[C@@H](NC(=O)[C@@H](NC(=O)Cc1ccncc1)C1CCCCC1)C(C)(C)C)C(C)(C)C21CCC1)C(=O)NS(=O)(=O)N1CCCC1 [Compound 175, (5R,8S)-7-[(2S)-2-({cyclohexyl[(pyridin-4-ylacetyl)amino]acetyl}amino)-3,3-dimethylbutanoyl]-10,10-dimethyl-N-{(1R,2S)-1-[(pyrrolidin-1-ylsulfonyl)carbamoyl]-2-vinylcyclopropyl}-7-azadispiro[3.0.4.1]decane-8-carboxamide]  10 nM
12. C=C[C@@H]1C[C@]1(NC(=O)[C@@H]1C[C@@]2(CN1C(=O)[C@@H](NC(=O)[C@@H](NC(=O)[C@@H]1CCCN1CC)C1(C)CCCCC1)C1(C)CCCCC1)C(C)(C)C21CCC1)C(=O)NS(=O)(=O)N(CC)CC [Compound 159, (5R,8S)-N-[(1R,2S)-1-{[(diethylamino)sulfonyl]carbamoyl}-2-vinylcyclopropyl]-7-[(2S)-2-{[(2S)-2-({[(2S)-1-ethylpyrrolidin-2-yl]carbonyl}amino)-2-(1-methylcyclohexyl)acetyl]amino}-2-(1-methylcyclohexyl)acetyl]-10,10-dimethyl-7-azadispiro[3.0.4.1]decane-8-carboxamide]  11 nM
13. C=C[C@@H]1C[C@]1(NC(=O)[C@@H]1C[C@@]2(CN1C(=O)[C@@H](NC(=O)[C@@H](NC(=O)c1cc3cc(OC)ccc3[nH]1)C1CCCCC1)C(C)(C)C)C(C)(C)C21CCC1)C(=O)NS(=O)(=O)N1CCCC1 [Compound 176, (5R,8S)-7-{(2S)-2-[(cyclohexyl{[(5-methoxy-1H-indol-2-yl)carbonyl]amino}acetyl)amino]-3,3-dimethylbutanoyl}-10,10-dimethyl-N-{(1R,2S)-1-[(pyrrolidin-1-ylsulfonyl)carbamoyl]-2-vinylcyclopropyl}-7-azadispiro[3.0.4.1]decane-8-carboxamide]  25 nM
14. C=C[C@@H]1C[C@]1(NC(=O)[C@@H]1C[C@@]2(CN1C(=O)[C@@H](NC(=O)[C@@H](NC(=O)c1[nH]c(C)c(C)c1C(C)=O)C(C)(C)C)C(C)(C)C)C(C)(C)C21CCC1)C(=O)NS(=O)(=O)N1CCCC1 [Compound 161, (5R,8S)-7-[(2S)-2-{[(2S)-2-{[(3-acetyl-4,5-dimethyl-1H-pyrrol-2-yl)carbonyl]amino}-3,3-dimethylbutanoyl]amino}-3,3-dimethylbutanoyl]-10,10-dimethyl-N-{(1R,2S)-1-[(pyrrolidin-1-ylsulfonyl)carbamoyl]-2-vinylcyclopropyl}-7-azadispiro[3.0.4.1]decane-8-carboxamide]  65 nM
15. C=CC1CC1(NC(=O)[C@@H]1C[C@@]2(CN1C(=O)[C@@H](NC(=O)[C@@H](NC(=O)C1CCCCN1C(C)C)C(C)(C)C)C(C)(C)C)C(C)(C)C21CCC1)C(=O)NS(=O)(=O)N1CCC[C@H]1CO (stereo partly drawn) [Compound 163, (5R,8S)-N-[1-({[(2S)-2-(hydroxymethyl)pyrrolidin-1-yl]sulfonyl}carbamoyl)-2-vinylcyclopropyl]-7-[(2S)-2-{[(2S)-2-{[(1-isopropylpiperidin-2-yl)carbonyl]amino}-3,3-dimethylbutanoyl]amino}-3,3-dimethylbutanoyl]-10,10-dimethyl-7-azadispiro[3.0.4.1]decane-8-carboxamide]  1500 nM

From patent publication US8613914B2, “Peptidomimetic sulfamide compounds and antiviral uses thereof” (Novartis AG, priority 2009, dated 2013)
